Source: PubChem BioAssay (NCI)
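96-well plates; 48 h exposure; 5 concentrations. Endpoints by linear interpolation between flanking doses. Not reached: highest tested concentration assigned. Here, GI50 denotes the concentration required for 50% inhibition of growth. TGI is the concentration that stops growth completely.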

Columns and labels:
Test in all cases: DTP human tumour cell line panel, 48 h
SF-268 CNS = test system: SF-268 CNS
SNB-19 CNS = test system: SNB-19 CNS
NCI-H522 lung = test system: NCI-H522 lung
HCC-2998 colon = test system: HCC-2998 colon
SNB-75 CNS = test system: SNB-75 CNS
HT29 colon = test system: HT29 colon
IGROV1 ovarian = test system: IGROV1 ovarian
TK-10 renal = test system: TK-10 renal
HS 578T breast = test system: HS 578T breast
PC-3 prostate = test system: PC-3 prostate

Structure (SMILES) | TGI (SF-268 CNS) [µM] | TGI (SNB-19 CNS) [µM] | TGI (NCI-H522 lung) [µM] | TGI (HCC-2998 colon) [µM] | TGI (SNB-75 CNS) [µM] | TGI (HT29 colon) [µM] | TGI (IGROV1 ovarian) [µM] | TGI (TK-10 renal) [µM] | TGI (HS 578T breast) [µM] | TGI (PC-3 prostate) [µM] | GI50 (SF-268 CNS) [µM] | GI50 (HCC-2998 colon) [µM] | GI50 (SNB-75 CNS) [µM] | GI50 (HS 578T breast) [µM] | GI50 (HT29 colon) [µM] | GI50 (IGROV1 ovarian) [µM] | GI50 (PC-3 prostate) [µM] | GI50 (TK-10 renal) [µM]
CCN(CC)CCCNC(=O)c1ccc([N+](=O)[O-])cc1O | > 100 | > 100 | > 100 | > 100 | > 100 | > 100 | > 100 | > 100 | – | – | – | – | – | – | – | – | – | –
S=C(/N=c1\sc(Nc2ccc(Cl)cc2)nc2sc3c(c12)CCN(N1CCc2c(sc4nc(Nc5ccc(Cl)cc5)s/c(=N\C(=S)Nc5ccc(Cl)cc5)c24)C1)C3)Nc1ccc(Cl)cc1 | > 100 | > 100 | > 100 | – | 64.5 | 36.1 | > 100 | > 100 | > 100 | 87.9 | – | – | – | – | – | – | – | –
NC(CC1=CS(=O)(=O)c2ccc(Cl)cc21)C(=O)O (stereo not given) | > 100 | > 100 | > 100 | – | > 100 | > 100 | > 100 | > 100 | > 100 | > 100 | – | – | – | – | – | – | – | –
CCOC(=O)C1(C(=O)OCC)COS(=O)OC1 | – | > 100 | 2.1 | > 100 | > 100 | > 100 | – | > 100 | > 100 | > 100 | – | – | – | – | – | – | – | –
CN(Cc1ccccc1)c1cc(=O)n(C)c(=O)[nH]1 | > 100 | > 100 | > 100 | > 100 | – | > 100 | – | > 100 | > 100 | > 100 | – | – | – | – | – | – | – | –
CC(=O)Oc1cc(C(F)(F)F)ccc1C(=O)OC1(C)OC(=O)c2ccc(C(F)(F)F)cc2O1 (stereo not given) | > 100 | > 100 | > 100 | > 100 | > 100 | > 100 | > 100 | > 100 | – | > 100 | – | – | – | – | – | – | – | –
N/C(=N\S(=O)(=O)c1c(C(F)(F)F)cccc1C(F)(F)F)Nc1ccc(Cl)cc1 | > 100 | > 100 | 30.6 | – | > 100 | > 100 | 60.2 | 65 | 68.6 | 25.6 | – | – | – | – | – | – | – | –
Oc1[nH]c2ccc(Br)cc2c1N=NC(=S)Nc1ccc(F)cc1 | 35.7 | – | 38 | – | 30 | 28 | 23.2 | 23.8 | 63.6 | 39.1 | – | – | – | – | – | – | – | –
O=[N+]([O-])c1ccc(/C=C/c2cc(-c3ccccc3)nc3ccc4ccccc4c23)cc1 | > 100 | > 100 | – | > 100 | > 100 | > 100 | > 100 | > 100 | > 100 | > 100 | – | – | – | – | – | – | – | –
C=CCNC(=S)N=Nc1c(O)[nH]c2ccc([N+](=O)[O-])cc12 | > 100 | > 100 | > 100 | > 100 | – | > 100 | > 100 | > 100 | > 100 | > 100 | – | – | – | – | – | – | – | –
CC(=O)O/N=C/c1c2ccccc2cc2ccccc12 | > 100 | > 100 | – | – | 51.5 | > 100 | – | > 100 | > 100 | > 100 | – | – | – | – | – | – | – | –
c1ccc2c(c1)c1c(n2CCOCCN2CCOCC2)CCCC1 | > 100 | > 100 | – | – | 70.2 | 31.6 | > 100 | 58.6 | > 100 | > 100 | – | – | – | – | – | – | – | –
C=Cc1ccc(C)[n+](C[Si](C)(C)O[Si](C)(C)C[n+]2cc(C=C)ccc2C)c1 | > 100 | > 100 | > 100 | > 100 | > 100 | > 100 | > 100 | > 100 | – | – | – | – | – | – | – | – | – | –
CC(=O)OCC1OC(n2cc(I)c(=O)[nH]c2=O)C(OC(C)=O)C(OC(C)=O)C1OC(C)=O (stereo not given) | > 100 | > 100 | > 100 | > 100 | > 100 | > 100 | > 100 | > 100 | – | – | – | – | – | – | – | – | – | –
CSC(=Nc1ccccc1)N(c1ccccc1)c1nc(=[N+](C)C)ss1 | 21.6 | 15.4 | 1.72 | 20.7 | 16.3 | 0.383 | 12.8 | 27.7 | – | – | – | – | – | – | – | – | – | –
C(=Nc1ccc(-c2nc3ccccc3o2)cc1)c1ccco1 | – | > 100 | > 100 | – | > 100 | > 100 | > 100 | – | – | > 100 | – | – | – | – | – | – | – | –
CC(C(=O)N1C(=O)N(C(=O)C(C)C(O)c2ccccc2)C2CCCCC21)C(O)c1ccccc1 (stereo not given) | > 100 | > 100 | > 100 | – | – | – | > 100 | > 100 | – | – | – | – | – | – | – | – | – | –
O=C1NCC(NC(=O)C(F)(F)F)c2c(Br)sc(Br)c21 (stereo not given) | > 100 | > 100 | > 100 | > 100 | > 100 | > 100 | > 100 | > 100 | – | > 100 | – | – | – | – | – | – | – | –
N=C(N)c1ccc(-c2ccc(-c3cccs3)s2)cc1 | 4.41 | – | – | 2.17 | 3.17 | 2.6 | 3.53 | 2.91 | 9.62 | 3.15 | 1.87 | 0.747 | 1.69 | 2.99 | 1.24 | 1.84 | 1.62 | 1.4
O=C1NCCS(=O)(=O)N[C@@H](CC2=CC=CCC2)C(=O)N2CCCC12 (stereo not given in full) | > 100 | > 100 | > 100 | > 100 | > 100 | > 100 | > 100 | > 100 | – | – | – | – | – | – | – | – | – | –
CCN1CCCC(NCc2c3ccccc3c(CNC3CCCN(CC)C3)c3ccccc23)C1 (stereo not given) | 38.4 | 65.8 | 8.12 | 27.9 | 25 | > 37.5 | 55.7 | – | – | – | – | – | – | – | – | – | – | –
Cn1ccnc1C(O)(c1nccn1C)c1nccn1C | > 100 | > 100 | > 100 | > 100 | > 100 | > 100 | – | > 100 | – | – | – | – | – | – | – | – | – | –
Nc1nc(N)c(N=O)c(Nc2ccc(Br)cc2)n1 | 57.1 | > 100 | > 100 | > 100 | 40.3 | 52.3 | 39.4 | 70.4 | – | – | – | – | – | – | – | – | – | –
CC(=O)O[C@H]1C(=O)[C@@]2(C)[C@H]([C@H](OC(=O)c3ccc(F)cc3)[C@]3(O)C[C@H](OC(=O)[C@H](O)[C@@H](NC(=O)c4ccccc4)c4ccccc4)C(C)=C1C3(C)C)[C@]1(OC(C)=O)CO[C@@H]1C[C@@H]2O | > 25 | > 25 | 0.585 | 0.174 | 0.659 | 3.85 | > 25 | > 16.1 | 0.0559 | – | – | – | – | – | – | – | – | –
